From patent publication US20020151551A1, “Use of growth hormone secretagogues in conjunction with physical exercise cross reference to related application” (priority 2000, published 2002)

Assays:
[1] = system: serum insulin-like growth factor-1; quadriceps muscle; conditions: canines during remobilization; cited from earlier work
diet-induced catabolism = conditions: orally active; cited from earlier work
[2] = system: exercise-induced growth hormone secretion; assay: Phase I double-blind, placebo-controlled, multiple dose evaluation: effect on exercise-induced growth hormone secretion (exercise bicycle); type: in vivo, human; conditions: for growth hormone AUC, End of Treatment, Mean: Day 7, calorically restricted obese subjects; for growth hormone AUC, End of Treatment, Mean / growth hormone AUC, Change, Mean: AUC up to 150 minutes post exercise; for growth hormone AUC, Change, Mean: Day 7 versus screening visit
Description: Phase I Double-Blind, Placebo-Controlled, Multiple Dose Evaluation of Test Compound in Calorically Restricted, Obese Men and Women
A total of 48 obese subjects, without significant other medical problems and a negative exercise tolerance test, were recruited for this study and placed on a caloric-restricted diet. Subjects had been randomized to either placebo, 3 mg po tid, 6 mg po tid or 10 mg po qam of the test compound, 2-amino-N-[2-(3a-(R)-benzyl-2-methyl-3-oxo-2,3,3a,4,6,7-hexahydro-pyrazolo[4,3-c]pyridin-5-yl)-1-(R)-benzyloxymethyl-2-oxo-ethyl]-isobutyramide, L-tartrate for a total of seven days.
One of the objectives of this study was to examine the effect of the test compound on exercise-induced growth hormone secretion. The testing was conducted on an exercise bicycle.
One of the efficacy measures of this study was the area under the growth hormone secretory response curve over time (AUC). The above table summarizes the growth hormone AUC values at the screening visit (“Before Treatment”) and at Day 7 (“End of Treatment”) for subjects, who completed exercise at both visits. Also, the AUC values for these subjects were calculated for up to 150 minutes post exercise. The “p-value” in the above table, which is associated with each active treatment group, is derived from comparing each active treatment group with the placebo group, using the two-sample Wilcoxon test.

Compound	serum insulin-like growth factor-1 levels [1]	size and strength of the quadriceps muscle [1]	diet-induced catabolism (diet-induced catabolism)	growth hormone AUC, End of Treatment, Mean ([2]; 3 mg p.o. tid for seven days)	growth hormone AUC, Change, Mean ([2]; 3 mg p.o. tid for seven days)	growth hormone AUC, End of Treatment, Mean ([2]; 6 mg p.o. tid for seven days)	growth hormone AUC, Change, Mean ([2]; 6 mg p.o. tid for seven days)	growth hormone AUC, End of Treatment, Mean ([2]; 10 mg p.o. qam for seven days)	growth hormone AUC, Change, Mean ([2]; 10 mg p.o. qam for seven days)	effect on exercise-induced growth hormone secretion ([2]; overall finding of the study, versus placebo)
CC(C)(N)C(=O)N[C@H](COCc1ccccc1)C(=O)N1CCC2(CC1)CN(S(C)(=O)=O)c1ccccc12 [MK-677]	elevated levels of serum insulin-like growth factor-1	increased the size and strength of the quadriceps muscle	reverses diet-induced catabolism							
CN1N=C2CCN(C(=O)[C@@H](COCc3ccccc3)NC(=O)C(C)(C)N)C[C@@]2(Cc2ccccc2)C1=O.O=C(O)C(O)C(O)C(=O)O [test compound, 2-amino-N-[2-(3a-(R)-benzyl-2-methyl-3-oxo-2,3,3a,4,6,7-hexahydro-pyrazolo[4,3-c]pyridin-5-yl)-1-(R)-benzyloxymethyl-2-oxo-ethyl]-isobutyramide, L-tartrate]				384	298	395	250	927	684	augmented exercise-induced growth hormone secretion
